Like-named read-outs stand apart in the source and are kept apart here.
Experiments:
C57BL/6 mice [1] = test: Acute food intake (appetite) in fasted mice; type: in vivo; conditions: fasted C57BL/6 mice, oral; TXX-522 20 and 60 mg/kg, SR141716A 10 mg/kg; 3 h intake
Method: Mice (8-week-old) were maintained singly for 7 days with ad libitum access to a standard diet before testing. […] At 30 min post treatment, the mice were allowed access to rodent chow, and their food intake was measured for the subsequent 3 h.

C57BL/6 mice [2] = test: WIN 55,212-2-induced hypothermia / body temperature; type: in vivo, C57BL/6J mice; conditions: for effect of compound alone on body temperature: TXX-522 alone, data not shown, WIN 55,212-2 3 mg/kg i.p.; for effect on WIN 55,212-2-induced hypothermia: oral, 1 h before WIN 55,212-2 3 mg/kg i.p., SR141716A 10 mg/kg, TXX-522 20 or 60 mg/kg, 30 min after WIN
Method: After a 7-day acclimation, body weight-matched male C57BL/6J mice (8-week-old) were randomly sorted into four different groups (n = 5 mice/group). […] The rectal temperature was monitored using a rectal probe coupled to a digital thermometer before and 30 min after treatment with WIN 55,212-2.

[3] = Steady state brain to plasma distribution after intravenous administration; type: in vivo, Sprague-Dawley rats; conditions: rat; for fraction of compound in the brain tissue: intravenous, steady state
Method: The compounds (2.5 mg/kg) were dissolved in 5% glucose solution containing polyoxyethylene castor oil (2.17%), 1,2-propanediol (0.56%), ethanol (0.75%), and medium chain triglycerides (0.48%) prior to intravenous administration to the Sprague-Dawley rats (n = 3), with an initial push of 0.3 mL at a speed of 75 mL/h, followed by 2.5 mL/h for 40 min. Retro-orbital blood samples (∼250 μL) were collected at defined time-points (0, 10, 15, 20, 25, 30, 35, and 40 min after dosing). The rats were then euthanized by decapitation, the brain and plasma samples were collected, and then stored at -80°C for subsequent assay. The plasma samples and whole rat brain, which had been homogenized with five volumes (v/w) of physiological saline on ice, were extracted by protein precipitation and analyzed using liquid chromatography-mass spectrometry/mass spectrometry, as previously reported ([Fulp et al., 2012]). The steady state Kp-value for each test compound was calculated and used as an index of brain penetration.

human CB1R [4] = target: T1, human CB1R (Homo sapiens, UniProt P21554); type: binding; design: host or cells: CHO (CHO-hCB1R)
Method: (§1) The affinities of TXX-522 for the human CB1R and CB2R receptor were analyzed using Cerep cooperation (Celle l’Evescault, France) using stably transfected CHO cells (CHO-hCB1R and CHO-hCB2R, respectively) and a previously reported competitive binding assay ([Munro et al., 1993]; [Chen et al., 2011]). Non-specific binding was determined in the presence of 10 μmol/L non-radioactive WIN 55,212-2. […] Each competitive binding inhibition curve was generated using data pooled from three independent experiments each conducted in duplicate.

DIO Kunming mice = test: Preliminary screening test in DIO Kunming mice; type: in vivo; conditions: 3-week treatment, 20 mg/kg, data not shown
Source text: Finally, we further evaluated the in vivo pharmacodynamic effects of TXX-522 in a commonly used mouse model of obesity.

rat hippocampal neurons = test: Fluoro-3 AM Ca2+ imaging in hippocampal neurons; type: cell-based; conditions: 10 nmol/L to 10 μmol/L; WIN 55,212-2 1 μmol/L; concentration-dependent
Method: Hippocampal neurons were prepared from neonatal rats as described previously and intracellular Ca^2+ levels ([Ca^2+]i) were investigated ([Chen et al., 2010]). […] WIN 55,212-2 (1 μmol/L) was added 1 min later. The fluorescence was monitored and imaged using the IN Cell Analyzer 1000 and analyzed using the Object Intensity Analysis Module of IN Cell. The [Ca^2+]i time courses were monitored by recording the relative fluorescence intensity per cell vs. time.

DIO C57BL/6 mice = test: Anti-obesity study in DIO C57BL/6 mice; type: in vivo; conditions: for effect on food intake of DIO mice: 1st week of administration; for effect on fasting blood glucose and insulin levels: overnight-fasted; for effect on serum triglyceride and total cholesterol: end of treatment, SR141716A 5 mg/kg, TXX-522 10 mg/kg; for onset of statistically significant body weight difference / effect on body weight of DIO mice: oral gavage daily 4 weeks; for effect on body weight of DIO mice: SR141716A 5 mg/kg/day
Method: Male C57BL/6J mice (6-week-old) were maintained on a 12-h light/dark cycle at a controlled temperature (22 ± 1°C) and were fed a high-fat diet (45% fat, 18% protein, and 37% carbohydrate) for 20 weeks to establish the DIO mouse model ([Chen et al., 2010], [2011]). Age-matched standard diet-fed lean mice were used as the normal control group. […] Individual body weights and cage food consumption were measured daily. Oral glucose tolerance testing was performed on treatment day 23 on overnight-fasted mice while the serum glucose and insulin levels were assayed as described previously ([Chen et al., 2013]). At the end of the treatment period, the mice were fasted overnight prior to collecting blood samples for the analysis of serum triglycerides and total cholesterol levels as described previously ([Xie et al., 2015]). Furthermore, the intra-abdominal white adipose tissues (epididymal, lumbar, and perirenal) were removed and weighed.

human CB1R [5] = target: T1, human CB1R; type: cell-based
Source text: (§2) Commercial enhanced green fluorescent protein (EGFP)-CB1/CB2_U2OS cells specifically designed to screen CB1R/CB2R agonists or antagonists (Thermo Fisher Bioimage ApS, Soeborg, Denmark) were used to examine the antagonist activity and selectivity of TXX-522 for these CBR subtypes. […] Based on a previously described method ([Chen et al., 2011]), the regular EGFP-CB1/CB2_U2OS cell culture medium was replaced with F12 culture medium containing 1 μmol/L Hoechst 33342 (Invitrogen, OR, United States) before each experiment, and incubated for 20 min at 37°C. […] Dimethyl sulfoxide (DMSO, 0.1%) was used as the vehicle control. After further incubation for 2 h at 37°C, images of the cells were acquired using the IN Cell Analyzer 2000 (GE Healthcare, NJ, United States; 20× objective) and analyzed using the Granularity Analysis Module of the IN Cell. The inhibition ratio of each tested compound was expressed as percentage inhibition of the internalization induced by the reference CB1R/CB2R agonist, WIN 55,212-2. […] The results were obtained from three independent experiments each performed in triplicate.

human CB2R [6] = target: T2, human CB2R (Homo sapiens, UniProt P34972); test: Receptor internalization (redistribution) assay in EGFP-CB2_U2OS cells; type: cell-based; conditions: read-out: IC50 CB2R, antagonism of WIN 55,212-2-induced internalization
Source text: as §2

human CB1R [7] = target: T1, human CB1R; test: Intracellular cAMP assay in CHO-hCB1 cells; type: cell-based; design: host or cells: CHO (CHO-hCB1R)
Method: (§3) The functional antagonism of the response to a CB1R agonist was previously detected in the CHO-hCB1R and CHO-hCB2R cell lines ([Chen et al., 2010], [2011]). Intracellular cAMP was analyzed in these cells using the LANCE cAMP 384 kit (AD0262, PerkinElmer, San Jose, CA, United States) following exposure to the vehicle or different concentrations of the test compounds (individually or combined) in the presence of a phosphodiesterase inhibitor (2.5 μmol/L 3-isobutyl-1-methylxanthine) for 30 min. The cAMP level detected in the vehicle-treated cells was set as 1, and the levels detected in the treated cells were expressed as fold changes compared to the control level.

human CB2R [8] = target: T2, human CB2R; test: Competitive radioligand binding assay, CHO-hCB2R; design: host or cells: CHO (CHO-hCB2R); conditions: CHO-hCB2R cells; read-out: IC50, CB2 receptor competitive binding
Method: as §1

human CB2R [9] = target: T2, human CB2R; test: Intracellular cAMP assay in CHO-hCB2 cells; type: cell-based; design: host or cells: CHO (CHO-hCB2R); conditions: even at 10 μmol/L
Method: as §3

DIO mice and rats = tested on: DIO mice and rats; design: method as in Alonso et al., 2012; Silvestri and Di Marzo, 2012; conditions: ref Alonso et al., 2012, Silvestri and Di Marzo; cited from earlier work
[10] = design: method as in earlier work; conditions: ref Chorvat et al., 2012, Klumpers et al., 2013, Knani et al., 2016, Lu et al.; cited from earlier work
[11] = 2.5 mg/kg intravenous infusion, 40 min

T2 sequence (P34972 whole entry): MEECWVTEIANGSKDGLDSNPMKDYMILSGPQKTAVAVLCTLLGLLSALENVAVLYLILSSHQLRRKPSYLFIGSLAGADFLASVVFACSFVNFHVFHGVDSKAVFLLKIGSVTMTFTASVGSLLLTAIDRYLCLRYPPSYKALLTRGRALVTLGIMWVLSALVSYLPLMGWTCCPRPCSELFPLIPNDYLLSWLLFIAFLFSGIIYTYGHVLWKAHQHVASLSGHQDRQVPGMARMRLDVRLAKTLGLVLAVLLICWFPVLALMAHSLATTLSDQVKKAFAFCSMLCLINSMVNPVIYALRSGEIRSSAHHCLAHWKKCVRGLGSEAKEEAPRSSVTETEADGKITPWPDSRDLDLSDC
T1 sequence (P21554 whole entry): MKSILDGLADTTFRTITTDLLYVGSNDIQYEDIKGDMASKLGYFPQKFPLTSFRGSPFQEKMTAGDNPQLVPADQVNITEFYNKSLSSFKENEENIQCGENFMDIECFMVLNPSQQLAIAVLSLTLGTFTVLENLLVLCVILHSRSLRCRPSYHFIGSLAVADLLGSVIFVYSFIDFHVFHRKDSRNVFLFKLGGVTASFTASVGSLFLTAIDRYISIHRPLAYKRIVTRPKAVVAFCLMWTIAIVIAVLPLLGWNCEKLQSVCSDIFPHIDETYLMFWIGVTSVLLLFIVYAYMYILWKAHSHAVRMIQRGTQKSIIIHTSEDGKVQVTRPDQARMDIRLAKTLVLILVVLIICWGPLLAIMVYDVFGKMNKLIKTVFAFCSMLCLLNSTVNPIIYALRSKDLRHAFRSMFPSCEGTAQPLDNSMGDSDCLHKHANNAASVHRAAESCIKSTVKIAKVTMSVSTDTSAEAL

Compound | effect on acute food intake (C57BL/6 mice [1]) | effect of compound alone on body temperature (C57BL/6 mice [2]) | effect on WIN 55,212-2-induced hypothermia (C57BL/6 mice [2]) | fraction of compound in the brain tissue [3] | effect on food intake of DIO mice (DIO C57BL/6 mice) | effect on fasting blood glucose and insulin levels (DIO C57BL/6 mice; DIO mice) | effect on serum triglyceride and total cholesterol (DIO C57BL/6 mice) | onset of statistically significant body weight difference (DIO C57BL/6 mice) | effect on body weight of DIO mice (DIO C57BL/6 mice; TXX-522 5 or 10 mg/kg/day) | effect on intracellular cAMP level in CHO-hCB2 cells (human CB2R [9]) | anorexia in DIO mice and rats (DIO mice and rats) | also measured
(5-(4-chlorophenyl)-1-(2, 4-dichlorophenyl)-4-methyl-1H-pyrazol-3-yl) (piperidin-1-yl) methanone [TXX-522] | did not affect acute food consumption | did not affect the body temperature | did not block | 2% | no anorexia | dramatically decreased | lowered both serum triglyceride and total cholesterol levels | from 2 weeks | dose-dependently decreased | neither TXX-522 nor SR141716A affected |  | Kp (brain to plasma distribution ratio, steady state) ([3]; 2.5 mg/kg intravenous infusion): 0.02; steady state concentration in brain [3, 11]: 528.9 ± 1.6 ng/mL; steady state concentration in plasma [3, 11]: 23323.0 ± 267.8 ng/mL; IC50 (human CB1R [4]; CHO-hCB1R cells, radioligand [3H]-CP 55,940 or [3H]-SR141716A, read-out: IC50, CB1R competitive binding): 0.17 µM; Ki (human CB1R [4]; CHO-hCB1R cells, radioligand [3H]-CP 55,940 or [3H]-SR141716A, read-out: Ki, CB1R competitive binding): 0.15 µM; selectivity ratio (CB1R over CB2R, binding) (human CB1R [4]; from radioligand binding values): 176; effect on body weight and fat mass (DIO Kunming mice): significantly reduced body weight and fat mass; effect on elevation and oscillation of [Ca2+]i elicited by WIN 55,212-2 (rat hippocampal neurons): blocked; effect on insulin resistance and hyperinsulinemia (DIO C57BL/6 mice; 5 mg/kg): ameliorated the insulin resistance and hyperinsulinemia more than the same dose of SR141716A did; adverse effects / apparent signs of toxicity (DIO C57BL/6 mice; DIO mice, 4 weeks, TXX-522 5 or 10 mg/kg/day): no adverse effects; weight loss and abdominal fat decrease by the end of the study (DIO C57BL/6 mice; chronic treatment, 5 and 10 mg/kg, compared with SR141716A): comparable efficacy to that of SR141716A; oral glucose tolerance testing (DIO C57BL/6 mice; treatment day 23, 5 mg/kg): ameliorated glucose intolerance more than the same dose of SR141716A did; IC50 (human CB1R [5]; EGFP-CB1_U2OS cells, WIN 55,212-2 1 μmol/L, read-out: IC50 CB1R, antagonism of WIN 55,212-2-induced internalization): 0.0103 ± 0.00608 µM; CB2R/CB1R selectivity (internalization IC50 ratio) (human CB1R [5]; EGFP-CB1_U2OS vs EGFP-CB2_U2OS cells): >968; IC50 (human CB2R [6]): > 10 µM; reversal of WIN 55,212-2-induced inhibition of forskolin-stimulated cAMP accumulation (human CB1R [7]; WIN 1 μmol/L, forskolin 0.1 μmol/L): dose-dependently reversed; maximum effect on cAMP (human CB1R [7]; at 10 μmol/L with forskolin plus WIN): equivalent to that induced by forskolin alone; effect of compound alone on forskolin-induced cAMP level (inverse agonism) (human CB1R [7]; up to 10 μmol/L, data not shown): no further increase; IC50 (human CB2R [8]): > 30 µM
CCCCCCc1nc(-c2ccc(Cl)cc2)n(-c2ccc(Cl)cc2Cl)n1 [LH-21] |  |  |  |  |  |  |  |  |  |  | induced anorexia | 
Cc1c(C(=O)NN2CCCCC2)nn(-c2ccc(Cl)cc2Cl)c1-c1ccc(Cl)cc1 [SR141716A, reference compound] | significantly inhibited food intake |  | reversed | > 60% | reduced food intake | dramatically decreased | notably reduced hypertriglyceridemia | from day 4 onward | significant reduction | neither TXX-522 nor SR141716A affected |  | Kp at 40 min ([3]; Sprague-Dawley, brain and plasma, 2.5 mg/kg intravenous infusion, read-out: Kp (brain to plasma distribution ratio, steady state)): 1.67
CC(C)[C@H](N=C(NS(=O)(=O)c1ccc(Cl)cc1)N1C[C@H](c2ccccc2)C(c2ccc(Cl)cc2)=N1)C(N)=O [JD-5037] |  |  |  |  |  |  |  |  |  |  | induced anorexia | brain to plasma distribution ratio (Kp) [10]: < 1
Cc1c(C(=O)c2cccc3ccccc23)c2cccc3c2n1[C@H](CN1CCOCC1)CO3 [WIN 55,212-2, reference compound] |  | notably decreased the body temperature |  |  |  |  |  |  |  |  |  | 

— article PMC5633609, “Novel Peripherally Restricted Cannabinoid 1 Receptor Selective Antagonist TXX-522 with Prominent Weight-Loss Efficacy in Diet Induced Obese Mice” (Frontiers in Pharmacology, 2017)
